From PubChem BioAssay AID1259407 (Chemical Carcinogenesis Research Information System (CCRIS), 2018) come the findings set out here.

Structures are written as SMILES. Calls of active or inactive are those of the source. How the calls were made is not given here.

This series deals with CCRIS mutagenicity, Ames/micronucleus/aberration tests. Nature of the series: CCRIS mutagenicity studies.
Setting [1] is: Test System: AMES SALMONELLA TYPHIMURIUM, Strain/Indicator: TA98, Metabolic Activation: NONE, Method: PREINCUBATION
Where [2] appears, read: Test System: AMES SALMONELLA TYPHIMURIUM, Strain/Indicator: TA100, Metabolic Activation: NONE, Method: PREINCUBATION
Setting [3] is: Test System: AMES SALMONELLA TYPHIMURIUM, Strain/Indicator: TA1535, Metabolic Activation: NONE, Method: PREINCUBATION
The mark [4] stands for this setting: Test System: AMES SALMONELLA TYPHIMURIUM, Strain/Indicator: TA98, Metabolic Activation: NONE, Method: STANDARD PLATE.
The mark [5] stands for this setting: Test System: AMES SALMONELLA TYPHIMURIUM, Strain/Indicator: TA100, Metabolic Activation: NONE, Method: STANDARD PLATE.
Where [6] appears, read: Test System: AMES SALMONELLA TYPHIMURIUM, Strain/Indicator: TA100, Metabolic Activation: RAT, LIVER, S-9, AROCLOR 1254, Method: STANDARD PLATE.

On to `CCCCC(CC)CN` (stereo unspecified), for which the mutagenic call (Test System: AMES SALMONELLA TYPHIMURIUM, Strain/Indicator: TA97, Metabolic Activation: HAMSTER, LIVER, S-9, AROCLOR 1254 (10%), Method: PREINCUBATION) is “inactive; negative”; the mutagenic call (Test System: AMES SALMONELLA TYPHIMURIUM, Strain/Indicator: TA97, Metabolic Activation: HAMSTER, LIVER, S-9, AROCLOR 1254 (30%), Method: PREINCUBATION) is “inactive; negative”; the mutagenic call (Test System: AMES SALMONELLA TYPHIMURIUM, Strain/Indicator: TA97, Metabolic Activation: NONE, Method: PREINCUBATION) is “inactive; negative”; the mutagenic call (Test System: AMES SALMONELLA TYPHIMURIUM, Strain/Indicator: TA97, Metabolic Activation: RAT, LIVER, S-9, AROCLOR 1254 (10%), Method: PREINCUBATION) is “inactive; negative”; the mutagenic call (Test System: AMES SALMONELLA TYPHIMURIUM, Strain/Indicator: TA97, Metabolic Activation: RAT, LIVER, S-9, AROCLOR 1254 (30%), Method: PREINCUBATION) is “inactive; negative”; the mutagenic call (Test System: AMES SALMONELLA TYPHIMURIUM, Strain/Indicator: TA98, Metabolic Activation: HAMSTER, LIVER, S-9, AROCLOR 1254 (10%), Method: PREINCUBATION) is “inactive; negative”. In addition, the mutagenic call reads like this: (Test System: AMES SALMONELLA TYPHIMURIUM, Strain/Indicator: TA98, Metabolic Activation: HAMSTER, LIVER, S-9, AROCLOR 1254 (30%), Method: PREINCUBATION) “inactive; negative”; under setting [1], “inactive; negative”; (Test System: AMES SALMONELLA TYPHIMURIUM, Strain/Indicator: TA98, Metabolic Activation: RAT, LIVER, S-9, AROCLOR 1254 (10%), Method: PREINCUBATION) “inactive; negative”; (Test System: AMES SALMONELLA TYPHIMURIUM, Strain/Indicator: TA98, Metabolic Activation: RAT, LIVER, S-9, AROCLOR 1254 (30%), Method: PREINCUBATION) “inactive; negative”; (Test System: AMES SALMONELLA TYPHIMURIUM, Strain/Indicator: TA100, Metabolic Activation: HAMSTER, LIVER, S-9, AROCLOR 1254 (10%), Method: PREINCUBATION) “inactive; negative”; (Test System: AMES SALMONELLA TYPHIMURIUM, Strain/Indicator: TA100, Metabolic Activation: HAMSTER, LIVER, S-9, AROCLOR 1254 (30%), Method: PREINCUBATION) “inactive; negative”. Also, the mutagenic call under setting [2] is “inactive; negative”; the mutagenic call (Test System: AMES SALMONELLA TYPHIMURIUM, Strain/Indicator: TA100, Metabolic Activation: RAT, LIVER, S-9, AROCLOR 1254 (10%), Method: PREINCUBATION) is “inactive; negative”; the mutagenic call (Test System: AMES SALMONELLA TYPHIMURIUM, Strain/Indicator: TA100, Metabolic Activation: RAT, LIVER, S-9, AROCLOR 1254 (30%), Method: PREINCUBATION) is “inactive; negative”; the mutagenic call (Test System: AMES SALMONELLA TYPHIMURIUM, Strain/Indicator: TA1535, Metabolic Activation: HAMSTER, LIVER, S-9, AROCLOR 1254 (10%), Method: PREINCUBATION) is “inactive; negative”; the mutagenic call (Test System: AMES SALMONELLA TYPHIMURIUM, Strain/Indicator: TA1535, Metabolic Activation: HAMSTER, LIVER, S-9, AROCLOR 1254 (30%), Method: PREINCUBATION) was “inactive; negative”; the mutagenic call under setting [3] was “inactive; negative”. Besides, the mutagenic call by setting is: (Test System: AMES SALMONELLA TYPHIMURIUM, Strain/Indicator: TA1535, Metabolic Activation: RAT, LIVER, S-9, AROCLOR 1254 (10%), Method: PREINCUBATION) “inactive; negative”; (Test System: AMES SALMONELLA TYPHIMURIUM, Strain/Indicator: TA1535, Metabolic Activation: RAT, LIVER, S-9, AROCLOR 1254 (30%), Method: PREINCUBATION) “inactive; negative”.

Take `Nc1cc([N+](=O)[O-])ccc1C(=O)O`: the mutagenic call under setting [1] was “active; positive”; the mutagenic call (Test System: AMES SALMONELLA TYPHIMURIUM, Strain/Indicator: TA98, Metabolic Activation: RAT, LIVER, S-9, AROCLOR, Method: PREINCUBATION) was “active; positive”; the mutagenic call (Test System: CHINESE HAMSTER OVARY, Strain/Indicator: CHO-K1-BH4 (HGPRT)/6-THIOGUANINE, Metabolic Activation: NONE) was “inactive; negative”; the mutagenic call (Test System: CHINESE HAMSTER OVARY, Strain/Indicator: CHO-K1-BH4 (HGPRT)/6-THIOGUANINE, Metabolic Activation: S-9) was “inactive; negative”.

In the case of `CC(C)OS(C)(=O)=O`, the mutagenic call (End Point: IN VITRO MICRONUCLEUS, Test System: MOUSE LYMPHOMA L5178Y CELLS, Metabolic Activation: NONE) was “active; positive”; the mutagenic call (End Point: IN VITRO MICRONUCLEUS, Test System: MOUSE LYMPHOMA L5178Y CELLS, Metabolic Activation: RAT, LIVER, S-9) was “active; positive”; the mutagenic call under setting [4] was “active; positive”; the mutagenic call (Test System: AMES SALMONELLA TYPHIMURIUM, Strain/Indicator: TA98, Metabolic Activation: RAT, LIVER, S-9, Method: STANDARD PLATE) was “inactive; negative”; the mutagenic call under setting [2] was “active; positive”; the mutagenic call under setting [5] was “active; positive”. Also, the mutagenic call (Test System: AMES SALMONELLA TYPHIMURIUM, Strain/Indicator: TA100, Metabolic Activation: RAT, LIVER, S-9, Method: STANDARD PLATE) was “active; positive”; the mutagenic call under setting [3] is “active; positive”; the mutagenic call (Test System: CHINESE HAMSTER V-79, Strain/Indicator: V-79/6-THIOGUANINE, Metabolic Activation: NONE, Method: FLASK ASSAY) was “active; positive”; the mutagenic call (Test System: CHO/HGPRT, Strain/Indicator: CHO-K1-BH4, Metabolic Activation: NONE, Method: STANDARD PLATE) is “active; positive”.

Take `CN(C)c1ccc(N=O)cc1`: under “Test System: AMES SALMONELLA TYPHIMURIUM, Strain/Indicator: TA100, Metabolic Activation: NONE, Method: FLUCTUATION TEST”, the mutagenic call is “active; positive”.

For the compound `CCC(CCC(C)O)COC(=O)c1ccccc1C(=O)O` (stereo unspecified), the mutagenic call (Test System: AMES SALMONELLA TYPHIMURIUM, Strain/Indicator: TA97, Metabolic Activation: NONE, Method: STANDARD PLATE) is “inactive; negative”; the mutagenic call (Test System: AMES SALMONELLA TYPHIMURIUM, Strain/Indicator: TA97, Metabolic Activation: RAT, LIVER, S-9, AROCLOR 1254, Method: STANDARD PLATE) was “inactive; negative”; the mutagenic call (Test System: AMES SALMONELLA TYPHIMURIUM, Strain/Indicator: TA97, Metabolic Activation: RAT, LIVER, S-9, DI(2-ETHYLHEXYL)PHTHALATE, Method: STANDARD PLATE) is “inactive; negative”; the mutagenic call under setting [4] is “inactive; negative”; the mutagenic call (Test System: AMES SALMONELLA TYPHIMURIUM, Strain/Indicator: TA98, Metabolic Activation: RAT, LIVER, S-9, AROCLOR 1254, Method: STANDARD PLATE) is “inactive; negative”; the mutagenic call (Test System: AMES SALMONELLA TYPHIMURIUM, Strain/Indicator: TA98, Metabolic Activation: RAT, LIVER, S-9, DI(2-ETHYLHEXYL)PHTHALATE, Method: STANDARD PLATE) is “inactive; negative”. Moreover, the mutagenic call was “inactive; negative” under setting [5]; “inactive; negative” under setting [6]; “inactive; negative” (Test System: AMES SALMONELLA TYPHIMURIUM, Strain/Indicator: TA100, Metabolic Activation: RAT, LIVER, S-9, DI(2-ETHYLEXYL)PHTHALATE, Method: STANDARD PLATE); “inactive; negative” (Test System: AMES SALMONELLA TYPHIMURIUM, Strain/Indicator: TA102, Metabolic Activation: NONE, Method: STANDARD PLATE); “inactive; negative” (Test System: AMES SALMONELLA TYPHIMURIUM, Strain/Indicator: TA102, Metabolic Activation: RAT, LIVER, S-9, AROCLOR 1254, Method: STANDARD PLATE); “inactive; negative” (Test System: AMES SALMONELLA TYPHIMURIUM, Strain/Indicator: TA102, Metabolic Activation: RAT, LIVER, S-9, DI(2-ETHYLHEXYL)PHTHALATE, Method: STANDARD PLATE).

As to `CCOc1cc2c(c3ccc4ccccc4c13)CCC2=O`, the mutagenic call under setting [6] was “inactive; negative”.

Turning to `COC(=O)c1oc([N+](=O)[O-])c(Cl)c1Cl`, the mutagenic call was “active; positive” under setting [4]; “active; positive” (Test System: AMES SALMONELLA TYPHIMURIUM, Strain/Indicator: TA100(NR), Metabolic Activation: NONE, Method: STANDARD PLATE); “active; positive” (Test System: AMES SALMONELLA TYPHIMURIUM, Strain/Indicator: TA100, Metabolic Activation: NONE, Method: STANDARD PLATE (ANAEROBIC INCUBATION)).
